8 compounds from US7462600B2, “Macrolides” (Pfizer Inc, priority 2004, dated 2008) can be followed below.

Converted amounts (≈) assume the structure as drawn. Where two headings read alike, the source gives them in different places.

Common to all, as to assay type: cell-based
Test [1] has as its system Streptococcus pyogenes 1079. Description: MIC, microtiter broth dilution (NCCLS M100-S14), S. pyogenes 1079 (ermB). The gist of the method:
(§1)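 Stock solutions of 40 mg/ml in DMSO were used. MIC values came from microtiter-tray broth dilution following NCCLS M100-S14 guidelines.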
Background: Dilution methods test growth across graded concentrations, often in twofold steps.

Test [2] relates to Streptococcus pneumoniae 1016. Description: MIC, microtiter broth dilution (NCCLS M100-S14), S. pneumoniae 1016 (susceptible). The gist of the method:
as §1

Test [3] deals with Streptococcus pneumoniae 1095. Particulars: microtiter broth dilution. The method, boiled down: as §1
In test [4] the test system is Streptococcus pneumoniae 1175. Particulars: microtiter broth dilution. The method, boiled down:
as §1

The subject of test [5] is Haemophilus influenzae 1218. Description: MIC, microtiter broth dilution (NCCLS M100-S14), H. influenzae 1218 (susceptible). The method, boiled down: as §1
The mark [6] stands for this setting: S. pneumoniae 1016 (susceptible).
The mark [7] stands for this setting: H. influenzae 1218 (susceptible).

`CCC1OC(=O)C(C)C(=O)C(C)C(OC2OC(C)CC(N(C)C)C2O)C(C)(OC)CC(C)C(=O)C(C)C2N(C3CN(S(=O)(=O)c4cccc(-c5ncco5)c4)C3)C(=O)OC12C` (stereo not shown) [Example 3.65, 3-descladinosyl-11,12-dideoxy-6-O-methyl-3-oxo-12,11-(oxycarbonyl-(1-(3-(oxazol-2-yl)benzenesulfonyl)-azetidin-3-yl)-imino)-erythromycin A]: the “MIC S. pyogenes 1079” value in test [1] (Streptococcus pyogenes 1079) was 1 µg/mL (≈ 1.14 µM). In addition, the “MIC S. pneumo. 1016” value in test [2] (Streptococcus pneumoniae 1016) was less than 0.06 µg/mL. Also, the “MIC S. pneumo. 1095” value in test [3] (Streptococcus pneumoniae 1095) was less than 0.06 µg/mL. Moreover, the “MIC S. pneumo. 1175” value in test [4] (Streptococcus pneumoniae 1175) is less than 0.06 µg/mL. The “MIC H. influenzae 1218” value in test [5] (Haemophilus influenzae 1218) was 0.12 µg/mL (≈ 0.137 µM).
For `CCC1OC(=O)C(C)C(=O)C(C)C(OC2OC(C)CC(N(C)C)C2O)C(C)(OC)CC(C)C(=O)C(C)C2N(C3CN(S(=O)(=O)c4ccc(-n5cccn5)cc4)C3)C(=O)OC12C` (stereo not shown) [Example 3.44, 3-descladinosyl-11,12-dideoxy-6-O-methyl-3-oxo-12,11-(oxycarbonyl-(1-(4-(1H-pyrazol-1-yl)benzenesulfonyl)-azetidin-3-yl)-imino)-erythromycin A], the “MIC S. pyogenes 1079” value in test [1] (Streptococcus pyogenes 1079) was determined as 0.12 µg/mL (≈ 0.137 µM). Besides, the “MIC S. pneumo. 1016” value in test [2] (Streptococcus pneumoniae 1016) is less than 0.06 µg/mL. Besides, the “MIC S. pneumo. 1095” value in test [3] (Streptococcus pneumoniae 1095) was less than 0.06 µg/mL. For the same compound, in test [4] (Streptococcus pneumoniae 1175), the “MIC S. pneumo. 1175” value is less than 0.06 µg/mL. Further, in test [5] (Haemophilus influenzae 1218), the “MIC H. influenzae 1218” value turned out to be 0.25 µg/mL (≈ 0.286 µM).
For `CC[C@H]1OC(=O)[C@H](C)C(=O)[C@H](C)[C@@H](O[C@@H]2O[C@H](C)C[C@H](N(C)C)[C@H]2O)[C@](C)(OC)C[C@@H](C)C(=O)[C@H](C)[C@H]2N(C3CN(Cc4c(Br)cnc5nccnc45)C3)C(=O)O[C@]12C` [Example 1.74, 3-descladinosyl-11,12-dideoxy-6-O-methyl-3-oxo-12,11-(oxycarbonyl-(1-(7-bromopyrido[3,2-b]pyrazine-8-methyl)-azetidin-3-yl)imino)-erythromycin A], the “MIC S. pyogenes 1079” value in test [1] (Streptococcus pyogenes 1079) was found to be 0.5 µg/mL (≈ 0.562 µM). Moreover, the “MIC S. pneumo. 1016” value in test [2] (Streptococcus pneumoniae 1016) was less than 0.063 µg/mL. Moreover, in test [3] (Streptococcus pneumoniae 1095), the “MIC S. pneumo. 1095” value is less than 0.063 µg/mL. The “MIC S. pneumo. 1175” value in test [4] (Streptococcus pneumoniae 1175) is less than 0.063 µg/mL. The “MIC H. influenzae 1218” value in test [5] (Haemophilus influenzae 1218) is 1 µg/mL (≈ 1.12 µM).
On to `CCC1OC(=O)C(C)C(=O)C(C)C(OC2OC(C)CC(N(C)C)C2O)C(C)(OC)CC(C)C(=O)C(C)C2N(CC3CCCN3Cc3cccc4cccnc34)C(=O)OC12C` (stereo not shown) [10.05], for which, in test [1] (S. pyogenes 1079 (ermB)), the “MIC S. pyogenes 1079” value was greater than 64.00 µg/mL. Besides, the “MIC S. pneumo. 1016” value in test [2] (setting [6]) was less than 0.06 µg/mL. The “MIC S. pneumo. 1095” value in test [3] (S. pneumoniae 1095 (ermB)) is less than 0.06 µg/mL. The “MIC S. pneumo. 1175” value in test [4] (S. pneumoniae 1175 (mefA)) was determined as 0.12 µg/mL (≈ 0.143 µM). In addition, the “MIC H. influenzae 1218” value in test [5] (setting [7]) turned out to be 4 µg/mL (≈ 4.78 µM).
Turning to `CC[C@H]1OC(=O)[C@H](C)C(=O)[C@H](C)[C@@H](O[C@@H]2O[C@H](C)C[C@H](N(C)C)[C@H]2O)[C@](C)(OC)C[C@@H](C)C(=O)[C@H](C)[C@H]2N(CC3(O)CN(S(=O)(=O)c4ccc5[nH]c(=O)oc5c4)C3)C(=O)O[C@]12C` [7.16], the “MIC S. pyogenes 1079” value in test [1] (S. pyogenes 1079 (ermB)) is greater than 64.00 µg/mL. In addition, the “MIC S. pneumo. 1016” value in test [2] (setting [6]) was less than 0.06 µg/mL. Further, the “MIC S. pneumo. 1095” value in test [3] (S. pneumoniae 1095 (ermB)) turned out to be 64 µg/mL (≈ 71.5 µM). Moreover, the “MIC S. pneumo. 1175” value in test [4] (S. pneumoniae 1175 (mefA)) was 4 µg/mL (≈ 4.47 µM). For the same compound, the “MIC H. influenzae 1218” value in test [5] (setting [7]) is 1 µg/mL (≈ 1.12 µM).
Take `CC[C@H]1OC(=O)[C@H](C)C(=O)[C@H](C)[C@@H](O[C@@H]2O[C@H](C)C[C@H](N(C)C)[C@H]2O)[C@](C)(OC)C[C@@H](C)C(=O)[C@H](C)[C@H]2N(CC3(O)CN(C(=O)c4cc5ccncc5[nH]4)C3)C(=O)O[C@]12C` [7.27]: in test [1] (S. pyogenes 1079 (ermB)), the “MIC S. pyogenes 1079” value is greater than 64.00 µg/mL. The “MIC S. pneumo. 1016” value in test [2] (setting [6]) is less than 0.06 µg/mL. In addition, in test [3] (S. pneumoniae 1095 (ermB)), the “MIC S. pneumo. 1095” value is less than 0.06 µg/mL. For the same compound, in test [4] (S. pneumoniae 1175 (mefA)), the “MIC S. pneumo. 1175” value is 1 µg/mL (≈ 1.19 µM). For the same compound, the “MIC H. influenzae 1218” value in test [5] (setting [7]) came out at 1 µg/mL (≈ 1.19 µM).
For the compound `CCCC(c1ccnc2ccccc12)N1CC(N2C(=O)OC3(C)C(CC)OC(=O)C(C)C(=O)C(C)C(OC4OC(C)CC(N(C)C)C4O)C(C)(OC)CC(C)C(=O)C(C)C23)C1` (stereo not shown) [Example 1.65, 3-descladinosyl-11,12-dideoxy-6-O-methyl-3-oxo-12,11-(oxycarbonyl-(1-(1-(quinolin4-yl)-butyl)-azetidin-3-yl)-imino)-erythromycin A], the “MIC S. pyogenes 1079” value in test [1] (Streptococcus pyogenes 1079) was determined as 8 µg/mL (≈ 9.4 µM). The “MIC S. pneumo. 1016” value in test [2] (Streptococcus pneumoniae 1016) is less than 0.06 µg/mL. In addition, the “MIC S. pneumo. 1095” value in test [3] (Streptococcus pneumoniae 1095) was less than 0.06 µg/mL. Further, the “MIC S. pneumo. 1175” value in test [4] (Streptococcus pneumoniae 1175) was less than 0.06 µg/mL. Further, in test [5] (Haemophilus influenzae 1218), the “MIC H. influenzae 1218” value was determined as 1 µg/mL (≈ 1.17 µM).
As to `CCC1OC(=O)C(C)C(=O)C(C)C(OC2OC(C)CC(N(C)C)C2O)C(C)(OC)CC(C)C(=O)C(C)C2N(CC3CCN(Cc4c[nH]nn4)CC3)C(=O)OC12C` (stereo not shown) [15.10], in test [1] (S. pyogenes 1079 (ermB)), the “MIC S. pyogenes 1079” value is greater than 64.00 µg/mL. Moreover, in test [2] (setting [6]), the “MIC S. pneumo. 1016” value was less than 0.06 µg/mL. In test [3] (S. pneumoniae 1095 (ermB)), the “MIC S. pneumo. 1095” value was greater than 64.00 µg/mL. The “MIC S. pneumo. 1175” value in test [4] (S. pneumoniae 1175 (mefA)) came to 8 µg/mL (≈ 10.1 µM). The “MIC H. influenzae 1218” value in test [5] (setting [7]) came to 4 µg/mL (≈ 5.06 µM).
